Paper PMC3435245, “D-Alanylation of Lipoteichoic Acids Confers Resistance to Cationic Peptides in Group B Streptococcus by Increasing the Cell Wall Density” (PLoS Pathogens, 2012)
Converted amounts (≈) assume the structure as drawn. Marks after values point to notes of the source that are not given here. Where a SMILES comes first, the peptide text is derived from it. Bridges are numbered along the chain shown (N, C = ends). [ ]: non-standard residue; d: D form. The star is where a group is joined. Heptanoyl(6-Me) = CC(C)CCCCC(=O)*; X1 = CC[C@H](C)CCCCC(=O)*; Dab = NCC[C@H](N)C(=O)O

How the values were obtained:
GBS NEM316 WT strain = format: cell-based, Streptococcus agalactiae; details: Todd-Hewitt broth with 100 mM HEPES, 2×10^6 CFU, 96-well polypropylene microplate, overnight 37°C, OD600 nm; average of triplicate measurements
Method: (§1) The MICs of each antimicrobial peptide were tested in Todd-Hewitt broth (THB) buffered with 100 mM HEPES in 96-well polypropylene microplates (Costar, Cambridge, MA) by a dilution method. Bacteria (2×10^6 CFU) were added in triplicates to wells containing increasing concentrations of the antimicrobial peptides. Plates were incubated at 37°C with shaking overnight and then read (OD600 nm) using microplate reader (Labsystems Multiskanat) for bacterial growth. The MICs90 was considered to be the peptide concentration that inhibited 90% growth.

GBS ΔdltA mutant = test: MIC90 by dilution method, GBS ΔdltA; format: cell-based, Streptococcus agalactiae; details: for MIC90, ΔdltA: Todd-Hewitt broth with 100 mM HEPES, 2×10^6 CFU, 96-well polypropylene microplate, overnight 37°C, OD600 nm, average of triplicate measurements; for more active against the dltA mutant compared to the WT (fold dilution): from MICs of Table 2, statement for all natural peptides; for fold more active on the dltA mutant compared to the WT: from MICs, WT versus dltA mutant
Method: as §1

GBS ΔmprF mutant = test: MIC90 by dilution method, GBS ΔmprF; format: cell-based, Streptococcus agalactiae; details: Todd-Hewitt broth with 100 mM HEPES, 2×10^6 CFU, 96-well polypropylene microplate, overnight 37°C, OD600 nm; average of triplicate measurements
Method: as §1

GBS Δlgt Δlsp mutant = test: MIC90 by dilution method, GBS Δlgt Δlsp; format: cell-based, Streptococcus agalactiae; details: Todd-Hewitt broth with 100 mM HEPES, 2×10^6 CFU, 96-well polypropylene microplate, overnight 37°C, OD600 nm; average of triplicate measurements
Method: as §1

GBS ΔcpsD mutant = test: MIC90 by dilution method, GBS ΔcpsD; format: cell-based, Streptococcus agalactiae; details: Todd-Hewitt broth with 100 mM HEPES, 2×10^6 CFU, 96-well polypropylene microplate, overnight 37°C, OD600 nm; average of triplicate measurements
Method: as §1

GBS ΔsrtA mutant = test: MIC90 by dilution method, GBS ΔsrtA; format: cell-based, Streptococcus agalactiae; details: Todd-Hewitt broth with 100 mM HEPES, 2×10^6 CFU, 96-well polypropylene microplate, overnight 37°C, OD600 nm; average of triplicate measurements
Method: as §1

[1] = RP-HPLC hydrophobicity (% AcN at elution); format: physicochemical; details: chromatographic, C4 reverse analytical column; eluted in 40 min, linear gradient of acetonitrile 30 to 70% v/v in water containing TFA (0.05% v/v)
Method: The procedure conducted as described previously. Briefly, peptides were synthesized using the Fmoc solid phase method on Rink amide resin ([…]). For fluorescent labeling of the N-terminus of the peptides, resin-bound peptides were treated with NBD or rhodamine dissolved in dimethyl formamide (DMF), washed thoroughly with DMF and then with methylene chloride, dried and then cleaved. […] The peptides were subjected to amino acid and mass spectrometry analysis to confirm their composition.

GBS WT strain = test: Rhodamine-labeled peptide fluorescence self-quenching on addition of bacteria (aggregation), WT; format: cell-based, Streptococcus agalactiae; details: rhodamine-labeled peptide 1 µM, self-quenching (aggregation) relative to basal signal of the peptide after addition of bacteria, room temperature; means of triplicate measurements from two independent experiments
Source text: (§2) We further investigated whether the increased cell wall density resulting from D-alanylation of LTAs can reduce CAMPs penetration through the cell wall barrier by following the interaction of fluorescently labeled CAMPs with intact bacteria. […] Here, we investigated if the peptides display different aggregation states when bound to the WT or the dltA mutant strains. This was done by monitoring changes in the signal intensity of rhodamine-labeled peptides following their interaction with the bacterial surface under under high (160 mM NaCl) and low (16 mM NaCl) ionic strength conditions. Addition of bacteria to the rhodamine-labeled peptides induced self-quenching of fluorescence for all tested peptides. However, no significant difference in aggregation was found in the WT compared to the dltA strain (Figure 7A and Table 3).
Real time tracking of the changes in the fluorescent signal of rhodamine or NBD labeled peptides was performed using an SLM-Aminco Bowman series 2-luminescence spectrophotometer (SLM-Aminco, Rochester, NY, USA) at room temperature. Typical spectral bandwidths were 5 nm for excitation and 5 nm for emission. […] Following signal stabilization, bacterial suspension (10 µl, OD600 nm adjusted to 4) or liposomes suspension (100 µM lipid final concentration) composed of cardiolipid/PG (1∶1 M/M) was added to the cuvette and the change in signal was monitored over time.

GBS dltA mutant = test: Rhodamine-labeled peptide fluorescence self-quenching on addition of bacteria (aggregation), dltA; format: cell-based, Streptococcus agalactiae; details: rhodamine-labeled peptide 1 µM
Source text: as §2
Real time tracking of the changes in the fluorescent signal of rhodamine or NBD labeled peptides was performed using an SLM-Aminco Bowman series 2-luminescence spectrophotometer (SLM-Aminco, Rochester, NY, USA) at room temperature. Typical spectral bandwidths were 5 nm for excitation and 5 nm for emission. […] The peptides were placed in a 5×5-mm quartz cuvette with constant magnetic stirring. Following signal stabilization, bacterial suspension (10 µl, OD600 nm adjusted to 4) or liposomes suspension (100 µM lipid final concentration) composed of cardiolipid/PG (1∶1 M/M) was added to the cuvette and the change in signal was monitored over time.

[2] = self-quenching (aggregation) relative to basal signal of the peptide after addition of bacteria, room temperature, means of triplicate measurements from two independent experiments

Compound | MIC90, WT (GBS NEM316 WT strain) [µM] | MIC90, ΔdltA (GBS ΔdltA mutant) [µM] | more active against the dltA mutant compared to the WT (fold dilution) (GBS ΔdltA mutant) | fold more active on the dltA mutant compared to the WT (GBS ΔdltA mutant) [fold] | MIC90, ΔmprF (GBS ΔmprF mutant) [µM] | MIC90, Δlgt Δlsp (GBS Δlgt Δlsp mutant) [µM] | MIC90, ΔcpsD (GBS ΔcpsD mutant) [µM] | MIC90, ΔsrtA (GBS ΔsrtA mutant) [µM] | Hydrophobicity (% AcN) [1] [% AcN] | Signal change [%], NaCl (16 mM), WT (GBS WT strain) [%] | Signal change [%], NaCl (160 mM), WT (GBS WT strain) [%] | Signal change [%], NaCl (16 mM), dltA (GBS dltA mutant; [2]) [%] | Signal change [%], NaCl (160 mM), dltA (GBS dltA mutant; [2]) | Difference in signal change [%], NaCl (160 mM), Δ(dltA-WT) (GBS dltA mutant; difference in the signal change between dltA strain to the WT strain) [%]
CC(C)CCCCC(=O)N[C@@H](CCN)C(=O)N[C@H](C(=O)N[C@@H](CCN)C(=O)N[C@H]1CCNC(=O)[C@H]([C@@H](C)O)NC(=O)[C@H](CCN)NC(=O)[C@H](CCN)NC(=O)[C@H](CC(C)C)NC(=O)[C@@H](CC(C)C)NC(=O)[C@H](CCN)NC1=O)[C@@H](C)O ({Heptanoyl(6-Me)}-[Dab]T[Dab][Dab][Dab][dL]L[Dab][Dab]T; lactam 4-C; N-terminus assumed) | >221.6 | 13.9 (≈ 16.1 µg/mL) | > 2 | 8 | >221.6 | >221.6 | >221.6 | >221.6 |  |  |  |  |  | 
CC(C)C[C@H](NC(=O)[C@H](CC(C)C)NC(=O)[C@H](CCCCN)NC(=O)[C@H](CC(C)C)NC(=O)[C@H](CC(C)C)NC(=O)[C@H](CC(C)C)NC(=O)[C@H](CCCCN)NC(=O)[C@H](CC(C)C)NC(=O)[C@H](CC(C)C)NC(=O)[C@H](CCCCN)NC(=O)[C@@H](N)CCCCN)C(=O)N[C@@H](CCCCN)C(N)=O [K5L7] (H-KKLLKLLLKLLK-NH2) | 25 (≈ 36.3 µg/mL) | 25 (≈ 36.3 µg/mL) |  |  |  |  |  |  |  |  |  |  |  | 
CC(C)C[C@H](NC(=O)[C@H](CC(C)C)NC(=O)[C@H](CCCCN)NC(=O)[C@H](CC(C)C)NC(=O)[C@H](CC(C)C)NC(=O)[C@H](CCCCN)NC(=O)[C@H](CCCCN)NC(=O)[C@H](CC(C)C)NC(=O)[C@H](CC(C)C)NC(=O)[C@H](CCCCN)NC(=O)[C@H](CCCCN)NC(=O)[C@H](CC(C)C)NC(=O)[C@H](CC(C)C)NC(=O)[C@H](CCCCN)NC(=O)[C@@H](N)CC(C)C)C(N)=O [K6L9] (H-LKLLKKLLKKLLKLL-NH2; N-terminus assumed) | 35.5 (≈ 64.1 µg/mL) | 17.7 (≈ 31.9 µg/mL) |  |  | 17.7 (≈ 31.9 µg/mL) | 17.7 (≈ 31.9 µg/mL) | 35.5 (≈ 64.1 µg/mL) | 35.5 (≈ 64.1 µg/mL) | 67.2 |  |  |  |  | 
CC(C)C[C@H](NC(=O)[C@H](CCCCN)NC(=O)[C@H](CCCCN)NC(=O)[C@H](CCCCN)NC(=O)[C@H](CC(C)C)NC(=O)[C@H](CCCCN)NC(=O)[C@H](CCCCN)NC(=O)[C@H](CC(C)C)NC(=O)[C@H](CC(C)C)NC(=O)[C@H](CCCCN)NC(=O)[C@H](CCCCN)NC(=O)[C@H](CC(C)C)NC(=O)[C@H](CCCCN)NC(=O)[C@H](CCCCN)NC(=O)[C@@H](N)CC(C)C)C(N)=O [K9L6] (H-LKKLKKLLKKLKKKL-NH2) | 25 (≈ 46.2 µg/mL) | 25 (≈ 46.2 µg/mL) |  |  |  |  |  |  |  |  |  |  |  | 
CC[C@H](C)[C@H](NC(=O)[C@H](CCCCN)NC(=O)[C@H](CCC(=O)O)NC(=O)[C@H](CCCCN)NC(=O)[C@H](CO)NC(=O)[C@H](CCCCN)NC(=O)[C@H](CCCNC(=N)N)NC(=O)[C@H](Cc1ccccc1)NC(=O)[C@H](Cc1ccccc1)NC(=O)[C@H](CC(=O)O)NC(=O)CNC(=O)[C@H](CC(C)C)NC(=O)[C@@H](N)CC(C)C)C(=O)NCC(=O)N[C@@H](CCCCN)C(=O)N[C@@H](CCC(=O)O)C(=O)N[C@@H](Cc1ccccc1)C(=O)N[C@@H](CCCCN)C(=O)N[C@@H](CCCNC(=N)N)C(=O)N[C@H](C(=O)N[C@H](C(=O)N[C@@H](CCC(N)=O)C(=O)N[C@@H](CCCNC(=N)N)C(=O)N[C@H](C(=O)N[C@@H](CCCCN)C(=O)N[C@@H](CC(=O)O)C(=O)N[C@@H](Cc1ccccc1)C(=O)N[C@@H](CC(C)C)C(=O)N[C@@H](CCCNC(=N)N)C(=O)N[C@@H](CC(N)=O)C(=O)N[C@@H](CC(C)C)C(=O)N[C@H](C(=O)N1CCC[C@H]1C(=O)N[C@@H](CCCNC(=N)N)C(=O)N[C@H](C(=O)N[C@@H](CCC(=O)O)C(=O)N[C@@H](CO)C(N)=O)[C@@H](C)O)C(C)C)[C@@H](C)CC)C(C)C)[C@@H](C)CC [LL-37] | >14.2 | 3.6 (≈ 16.2 µg/mL) |  |  | >14.2 | >14.2 | >14.2 | >14.2 |  |  |  |  |  | 
CC[C@H](C)[C@H](NC(=O)CN)C(=O)NCC(=O)N[C@@H](CCCCN)C(=O)N[C@@H](Cc1ccccc1)C(=O)N[C@@H](CC(C)C)C(=O)N[C@@H](Cc1c[nH]cn1)C(=O)N[C@@H](CO)C(=O)N[C@@H](C)C(=O)N[C@@H](CCCCN)C(=O)N[C@@H](CCCCN)C(=O)N[C@@H](Cc1ccccc1)C(=O)NCC(=O)N[C@@H](CCCCN)C(=O)N[C@@H](C)C(=O)N[C@@H](Cc1ccccc1)C(=O)N[C@H](C(=O)NCC(=O)N[C@@H](CCC(=O)O)C(=O)N[C@H](C(=O)N[C@@H](CCSC)C(=O)N[C@@H](CC(N)=O)C(=O)N[C@@H](CO)C(N)=O)[C@@H](C)CC)C(C)C [Magainin 2] (H-GIGKFLHSAKKFGKAFVGEIMNS-NH2) | >25.5 | 6.4 (≈ 15.8 µg/mL) |  |  | >25.5 | >25.5 | >25.5 | >25.5 |  |  |  |  |  | 
CC[C@H](C)CCCCC(=O)N[C@@H](CCN)C(=O)N[C@H](C(=O)N[C@@H](CCN)C(=O)N[C@H]1CCNC(=O)[C@H]([C@@H](C)O)NC(=O)[C@H](CCN)NC(=O)[C@H](CCN)NC(=O)[C@H](CC(C)C)NC(=O)[C@@H](Cc2ccccc2)NC(=O)[C@H](CCN)NC1=O)[C@@H](C)O [Polymyxin B] (X1-[Dab]T[Dab][Dab][Dab][dF]L[Dab][Dab]T; lactam 4-C (inferred); N-terminus assumed) | 92.4 (≈ 111 µg/mL) | 5.8 (≈ 6.98 µg/mL) | > 2 | 8 | 92.4 (≈ 111 µg/mL) | 92.4 (≈ 111 µg/mL) | 92.4 (≈ 111 µg/mL) | 92.4 (≈ 111 µg/mL) | 53.2 |  |  |  |  | 
CH3(CH2)6CO-KKLLKLLLKLLK-NH2 [C8-K5L7, lipopeptide: K5L7 coupled to a short fatty acid] | 3 | 3 |  |  |  |  |  |  | 61.4 |  |  |  |  | 
Rho-LL37: rhodamine-labeled LL37 (N-terminus) |  |  |  |  |  |  |  |  |  | −60.8 | −26.6 | −58.6 | −32.7 ^c % | 6.1
